According to patent US11988734B2, “Method and application for measuring the intracellular water transmembrane efflux rate, and measurement method and system for magnetic resonance imaging biomarker of glioma” (ZHEJIANG UNIVERSITY, priority 2022, dated 2024):
Where “and” joins values, the source holds several entries; their conditions need not be identical. Equal entries are not always repeated. Entries after “also recorded” stand apart in the source; their conditions may differ.

Key:
[1] = tested on: C6 cells; experiment: Water exchange DCE-MRI measurement of intracellular water efflux rate constant kio in C6 cells; assay type: cell-based; settings: for kio: 50 μM TMZ, control 10.9±0.7; for decrease of kio vs control: TMZ
Procedure: (§1) C6 cells were treated with TMZ (50 μM) and treated with 50 μM TMZ dissolved in 0.1% DMSO […] or 0.1% DMSO in complete culture medium. The magnetic resonance parameters kio and physiological information (cell morphology, AQP4 expression, cell activity and cell migration distance) were obtained on the third and seventh days of TMZ (50 μM) treatment.
(§2) In order to obtain the cell samples for MRI, U87MG (0.5˜1×10^5) or C6 (1˜2×10^6) cell lines were first washed with DPBS, disassociated by adding 1 mL of 0.25% Trypsin-EDTA solution to 60 mm dish and incubating for 0.5 to 1.0 min, and then resuspended with 2 mL PBS (or PBS supplemented with 5 mM Gadoteridol). After centrifuging the cell sample with relative centrifugal force of 150 g at 4° C. for 5 min, the sample was resuspended in a custom MR compatible glass sample tube (diameter 5 mm×length 20 mm) with 250˜300 μL PBS (or PBS+5 mM Gadoteridol). We then centrifuged the MR tubes at 300 g at 4° C. for 2 min before carrying out MRI. For AQP4 inhibition experiments, cells were pre-cultured with 6.4 μM TGN020 (Axon, CAS 51987-99-6) dissolved in PBS for 15 mins or 1 mM ouabain (Sigma, CAS 11018-89-6) for 15 mins, respectively; the PBS in the above steps was replaced with PBS+inhibitor.
The 0.5 T desktop MRI measurement system for cell culture in vitro (Pure Devices GmbH, Germany) includes: the MRI system installed on the anti-vibration platform and the autonomous nuclear magnetic tube containing live cell precipitation from the incubator, 5% CO2+95% O2 and PBS supernatant to ensure high survival rate, and the temperature monitoring optical fiber is installed. All MRI measurements were performed at room temperature (23.5+/−1° C.).
Water exchange DCE-MRI was performed with an inversion-recovery prepared turbo-spin-echo (IR-TSE) sequence and an extracellular Gd-based contrast agent, Gadoteridol (Prohance™ Bracco Diagnostics, Inc., Princeton, NJ). The following scan parameters were used in water exchange DCE-MRI: echo time (TE) 3 ms, turbo factor 16, FOV 12.8×12.8 mm^2, matrix size 32×32. Water exchange DCE-MRI was performed with two CA concentrations, 0 and 5 mM. At [CA]=5 mM, IR-TSE were measured with 13 IR delays (10 ms, 30 ms, 50 ms, 70 ms, 90 ms, 150 ms, 200 ms, 400 ms, 600 ms, 800 ms, 1 s, 5 s, 5 s) with repetition time TR varying together (TR=IR delay+5 s) and single repetition on each IR delay. At [CA]=0 mM, the longest IR delays were extended to 10 s with TR extended simultaneously (TR=IR delay+10 s) to guarantee full recovery of the longitudinal magnetization in each TR. The scan time for a single acquisition at [CA]=0 mM and 5 mM is 10 min and 5.5 min, respectively. Two acquisitions on [CA]=5 mM were acquired and averaged.
IR-TSE signal (M) at each IR delay was taken as the average signal of the cell pellet ROI. Then the signal was subtracted and normalized by the equilibrium magnetization (M0, taken as M with the longest IR delay). We define M as the normalized signal for future SS model analysis: M=(M−M0)/M0 (1)
A two-site-exchange (2SX) SS model was used here with details as described previously ^6. Briefly, the MR signal is considered as the sum of signals of two water sites—intra- and extracellular water, each site is assumed to have a similar longitude recovery rate R1, with pi and po as the mole fraction of water molecules in the intra- and extracellular space, respectively, and pi+po=1. Then the normalized IR-TSE signal M can be described with a biexponential function, M=psmexp(−tR1,sm)+(1−psm)exp(−tR1,lar) (2)
where R1,sm and R1,lar are the apparently smaller and larger R1, respectively, and psm, is the apparent fraction of MR signals showing R1,sm. The three parameters, R1,sm, R1,lar and psm, are determined by […] physical parameters including pi, the intracellular water efflux rate constant (kio), and the R1 of intracellular water (R1i), and the CA-dependent extracellular water R1 (R1o). […]

[2] = tested on: U87MG cell line; experiment: Water exchange DCE-MRI measurement of kio in U87MG cell line with AQP4 inhibition; assay type: cell-based; settings: Phase I (adaptation period), 6.4 μM TGN020, n=6
Procedure: as §2, with “For AQP4 inhibition experiments, cells were pre-cultured with 6.4 μM TGN020 (Axon, CAS 51987-99-6) dissolved in PBS for 15 mins or 1 mM ouabain (Sigma, CAS 11018-89-6) for 15 mins, respectively; the PBS in the above steps was replaced with PBS+inhibitor.” left out
Water exchange DCE-MRI was performed with an inversion-recovery prepared turbo-spin-echo (IR-TSE) sequence and an extracellular Gd-based contrast agent, Gadoteridol (Prohance™ Bracco Diagnostics, Inc., Princeton, NJ). […] At [CA]=5 mM, IR-TSE were measured with 13 IR delays (10 ms, 30 ms, 50 ms, 70 ms, 90 ms, 150 ms, 200 ms, 400 ms, 600 ms, 800 ms, 1 s, 5 s, 5 s) with repetition time TR varying together (TR=IR delay+5 s) and single repetition on each IR delay. […]
where R1,sm and R1,lar are the apparently smaller and larger R1, respectively, and psm, is the apparent fraction of MR signals showing R1,sm. […] For each condition (e.g., C6 at TMZ 0, 3, and 7 day), at least three samples were measured with IR-TSE at [CA]=0 mM as the baseline data. […]

[3] = biological target: T1, AQP4 (Rattus norvegicus, UniProt P47863); experiment: Pharmacological inhibition of AQP4 in subcutaneous rat glioma model (C6), in vivo water exchange DCE-MRI
T1 construct: C6 cell line was subcutaneously implanted into the right leg of Sprague Dawley (SD) rats to establish a glioma animal model; from tissue; host or cells: Subcutaneous C6 glioma tumour in Sprague Dawley rats (in vivo)
Procedure: All experimental protocols for animal studies were approved by the Animal Experimentation Committee of Zhejiang University. Adult (7˜8-week-old) male Sprague Dawley (SD) rats were obtained from the Laboratory Animal Center of Zhejiang University. During glioma cell introduction, rats were anesthetized with a mixture of 2% (v/v) isoflurane in air (R500IE, RWD Life Science Co., Ltd,), and then 100 μl PBS containing 5×10^6 C6 cells and 1% antibiotics (P/S) were slowly injected under the skin at the right leg. Seven to nine days after tumour implementation, the animals were taken for 7 T MRI test and the tumour was quickly removed after and fixed for IHC after MRI.
Here TGN020 was used to inhibit AQP4 in rat glioma model. For TGN020 group, each animal was treated with TGN020 (3 mg/kg, 4 ml/kg body weight) in the tail vein 15 minutes before water exchange DCE-MRI. In order to increase the solubility, before intravenous injection, TGN020 was repeatedly ultrasound and vortex at 37° C. to promote dissolution and dispersion in saline (0.9% NaCl). One day before TGN020 treatment, the same animal was treated with normal saline (4 ml/kg), and then water exchange DCE-MRI data collection was performed. In the control group, animals were treated with the same volume of normal saline on the first day and the second day. Here, the small volume infusion needs to be flushed after infusion to ensure the safety and treatment effect of rats.
In vivo water exchange DCE-MRI is achieved through clinical use of Gd-based CA (dimethylamine gadolinate, Guangzhou, China). In order to better estimate kio, the invention uses the method of two injections of CA, which improves the accuracy of kio estimation by 10 times compared with the traditional method of single injection of contrast agent. In addition, the steady-state multi-gradient echo (MGE) sequence is used to overcome the potential T2* artifacts caused by contrast agents. […] Finally, the fitting error of SS model is carefully analyzed to remove kio with large fitting error.

[4] = tested on: AQP4; experiment: AQP4 expression (immunofluorescence, fluorescence intensity rfu) in C6 cell line during TMZ treatment; assay type: cell-based; settings: C6 cells, 50 μM TMZ
Procedure: as §1
After the MRI tests, the cell line sample was immediately fixed by 4% paraformaldehyde (PFA) at room temperature for 20 min, then stored in 0.5% PFA (4° C.). For immunofluorescence (IF) testing, protocols following: samples were (1) blocked with 10% goat serum (Beyotime, CO265) for one hour at room temperature; (2) incubated with primary antibody overnight at 4° C. and the secondary antibody at room temperature for 1 h; (3) stained with DAPI (4′,6-diamidino-2-phenylindole, Sigma-Aldrich, 1:1000) at room temperature for 5 min; and (4) washed three times with PBS. […] Data were collected from two fluorescence channels: one in which DAPI was characterized with excitation/emission wavelengths 375 nm/435 to 485 nm and the other with either […] (excitation/emission 470 nm/514 to 567 nm) or green (excitation/emission 525 nm/565 to 650 nm) channels. Fluorescence images were taken from either a Fluorescence Inversion Microscope System (cellSensV1.13, Olympus, Japan) or a confocal laser scanning microscope (fv1200, Olympus, Japan).

[5] = tested on: C6 cells; experiment: Slow cycling cell (SCC) fraction by OG cell tracer in C6 cells; assay type: cell-based; settings: before TMZ 6.0 (±0.4)%
Text: The present invention uses the method of cell tracer to distinguish FCC and SCC. The OG (Oregon Green 488 Carboxylic Acid Diacetate, Succinimidyl Ester) and CTV (CellTrace™ Violet reagent, ThermoFisher scientific, Invitrogen C34557) were used to distinguish FCCs (low OG or CTV intensity) and SCCs (high OG or CTV intensity, e.g., the CTV intensity>10^4) in C6 cell lines and human glioma primary cell culture, respectively. Populations of FCCs and SCCs were identified and isolated in cell cultures based on their capacity to retain OG or CTV. Briefly, the cells were first suspended in PBS containing 25 μM OG and incubated in the dark at 37° C. for 10 min. After incubation, cell samples were washed in DMEM to remove residual dye and then returned to the culturing medium for three days until imaging. Before fluorescence imaging, samples were fixed in 4% PFA for 30 min and then stained with DAPI. The fraction of SCCs was defined as the fraction of OG positive cells in the DAPI positive cells. For primary human glioma primary cell cultures, the cells were stained with 5 μM CTV (the same methods as OG) for three days. Then, the cells fluorescence intensity statistics and counts were measured by a Fluorescence Activating Cell Sorter System (FACS) (LSRFortessa X-20, BD, USA).

T1 sequence (P47863 whole entry): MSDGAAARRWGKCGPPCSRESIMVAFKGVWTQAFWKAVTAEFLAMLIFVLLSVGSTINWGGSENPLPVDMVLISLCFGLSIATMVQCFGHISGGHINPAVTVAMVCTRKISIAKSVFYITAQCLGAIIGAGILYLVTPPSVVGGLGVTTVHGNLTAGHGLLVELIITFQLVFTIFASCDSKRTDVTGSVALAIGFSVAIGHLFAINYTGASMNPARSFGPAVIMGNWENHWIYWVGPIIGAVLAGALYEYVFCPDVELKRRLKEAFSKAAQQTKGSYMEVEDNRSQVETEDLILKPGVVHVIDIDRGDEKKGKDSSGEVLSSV

average kio of the whole tumor ([3]; TGN020 3 mg/kg tail vein 15 min before DCE-MRI, n=9, saline 6.3±0.6, 3 mg/kg)	decrease of average kio of the whole tumor ([3]; TGN020 3 mg/kg vs saline in same animal, n=9, p=0.0246)	average K^trans of the whole tumor ([3]; TGN020 3 mg/kg, saline 0.060±0.015)	Compound	effect of AQP4 inhibition on kio ([1]; C6 cells on 7th day of TMZ treatment, 6.4 μM TGN020)	effect of AQP4 inhibition on kio [2]	decrease of AQP4 expression level, fluorescence intensity (rfu) ([4]; seventh day of treatment)	decrease of AQP4 expression level, fluorescence intensity (rfu) ([4]; third day of treatment)	kio ([1]; C6 cells, seventh day of treatment, n=7)	kio ([1]; C6 cells, third day of treatment, n=6)	decrease of kio (absolute) ([1]; C6 cells, 7th day of TMZ treatment vs control)	decrease of kio vs control ([1]; C6 cells, seventh day)	decrease of kio vs control ([1]; C6 cells, third day)	proportion of SCC (OG+) ([5]; seventh day of TMZ treatment)	proportion of SCC (OG+) ([5]; third day of TMZ treatment)
5 ± 0.7 s⁻¹ and 3.5 ± 0.7 s⁻¹	43%	0.045 ± 0.024 min⁻¹	O=C(Nc1nncs1)c1cccnc1 [TGN020]	could not further reduce kio; also recorded: did not lead to further reduction of kio	will not lead to a significant decrease in kio; also recorded: will not lead to further reduction of kio									
			Cn1nnc2c(C(N)=O)ncn2c1=O [TMZ, temozolomide]			85.9%	42.5%	5.8 ± 0.2 s⁻¹	6.7 ± 0.8 s⁻¹	4.9 s⁻¹	45.5%	37.3%	28.9 (±0.3) %	16.0 (±0.1) %
